The values below come from patent US20160235806A1, “Novel Peptide Compound for Inhibiting Restenosis and Promoting Re-Endothelialization and Method for Preparing the Same” (Chonnam National University Hospital, priority 2014, published 2016).

The assay concerns vascular smooth muscle cell (SMC). Briefly: Effect on proliferation of vascular smooth muscle cell (SMC), XTT assay. Format: cell-based. Particulars: 1 uM; 1, 4, and 7 days; vs non-treated control that continuously grew until 7 days. How it is done:
As cells used in a cell culture, the vascular smooth muscle cell (SMC) which is a smooth muscle cell, and the human umbilical vein endothelial cell (HUVEC) which is the cell for promoting vascular re-endothelialization were purchased from Korea Cell Line Bank, respectively. The cell culture was performed by culturing the vascular smooth muscle cell (SMC) and the human umbilical vein endothelial cell (HUVEC) in Dulbecoco's modified eagle medium (DMEM) with 10% fetal bovine serum (FBS) under conditions of 37° C. and 5% CO2. […]
5×10^4 of SMC cells cultured according to Example 2 were cultured in the 24-well cell culture plate and then treated with 1 uM of the peptide compound prepared by Example 2 (hereinafter, referred to as ‘EVR-P’). […] After the reaction, 200 ul of the culture medium was transferred from each well to a 96 well cell culture dish, and degree of color change was measured from absorbance at a 450 nm wavelength by a spectroscopy.
5×10^4 of SMC cells cultured according to Example 2 were cultured in the 24-well cell culture plate and then treated with 1 uM of the known Everolimus (EVR)(LC Laboratories). […] After the reaction, 200 ul of the culture medium was transferred from each well to the 96 well cell culture dish, and degree of color change was measured from absorbance at a 450 nm wavelength by a spectroscopy.

SMILES strings stand for the structures.

Consider `CO[C@H]1C[C@@H]2CC[C@@H](C)[C@@](O)(O2)C(=O)C(=O)N2CCCC[C@H]2C(=O)O[C@H]([C@H](C)C[C@@H]2CC[C@@H](OCCO)[C@H](OC)C2)CC(=O)[C@H](C)/C=C(\C)[C@@H](O)[C@@H](OC)C(=O)[C@H](C)C[C@H](C)/C=C/C=C/C=C/1C` [EVR, Everolimus], for which the “SMC cell proliferation (XTT, absorbance at 450 nm)” value is on record as “cell proliferation was inhibited”.
